Reference: patent US20230017786A1, “DEXTR[…] A DISEASE-MODIFYING TREATMENT FOR NEUROPSYCHIATRIC DISORDERS AND DISEASES” (priority 2020, published 2023)
Several values for one entry are separate records, joined by “and”; a condition that tells them apart may be missing. Equal values may be shown once.

Tests used:
Assay type in all cases: cell-based
[1] = test system: diheteromeric human recombinant NMDAR containing GluN1 plus GluN2A, GluN2B, GluN2C or GluN2D; test: FLIPR calcium assay, statements for all four NMDAR subtypes together
From the text: An operational equation for allosteric modulators (Leach K, Sexton P M and Christopoulos A, Allosteric GPCR modulators: taking advantage of permissive receptor pharmacology, Trends Pharmacol. Sci. 28: 382-389, 2007; Kenakin T P, Overview of receptor interaction of agonists and antagonists, Curr. Protoc. Pharmacol. Chapter 4: Unit 4.1, 2008, Kenakin T P, Biased signalling and allosteric machines: new vistas and challenges for drug discovery, Br. J. Pharmacol. 165: 1659-1669, 2012) was created in Prism 8 (GraphPad) software to estimate KB and a parameters for every test item, with the assumption that, as a pore blocker, every test item would be able to produce a compete blockade of agonist response, at sufficiently high concentration: […]

[2] = target: T1, human NMDA receptor GluN1-GluN2A (Homo sapiens, UniProt Q05586+Q12879); test: FLIPR calcium assay, test item effect on L-glutamate CRC, GluN1-GluN2A-CHO
T1 construct: expressed in transfected cells; host or cells: CHO
Method: (§1) FLIPR determination of intracellular calcium level was used as a read-out for NMDAR activation.
(§2) 400× compound plate was stored at −20° C. until FLIPR experimental day.
(§3) 4× compound plate was generated from 400× compound plate by addition of up to 30 μl/well of compound buffer on FLIPR experimental day.
(§4) A FLIPR system was used to monitor intracellular calcium level in NMDAR cell lines, pre-loaded for 1 hour with Fluo-4, and then washed with assay buffer.
(§5) Y=Bottom+(Top−Bottom)/(1+10^((LogEC50−Log[A])*HillSlope))

[3] = target: T2, human NMDA receptor GluN1-GluN2B (Homo sapiens, UniProt Q05586+Q13224); test: cell-based
T2 construct: expressed in transfected cells; host or cells: CHO
T2 sequence (Q13224 27-1484, other chains not shown): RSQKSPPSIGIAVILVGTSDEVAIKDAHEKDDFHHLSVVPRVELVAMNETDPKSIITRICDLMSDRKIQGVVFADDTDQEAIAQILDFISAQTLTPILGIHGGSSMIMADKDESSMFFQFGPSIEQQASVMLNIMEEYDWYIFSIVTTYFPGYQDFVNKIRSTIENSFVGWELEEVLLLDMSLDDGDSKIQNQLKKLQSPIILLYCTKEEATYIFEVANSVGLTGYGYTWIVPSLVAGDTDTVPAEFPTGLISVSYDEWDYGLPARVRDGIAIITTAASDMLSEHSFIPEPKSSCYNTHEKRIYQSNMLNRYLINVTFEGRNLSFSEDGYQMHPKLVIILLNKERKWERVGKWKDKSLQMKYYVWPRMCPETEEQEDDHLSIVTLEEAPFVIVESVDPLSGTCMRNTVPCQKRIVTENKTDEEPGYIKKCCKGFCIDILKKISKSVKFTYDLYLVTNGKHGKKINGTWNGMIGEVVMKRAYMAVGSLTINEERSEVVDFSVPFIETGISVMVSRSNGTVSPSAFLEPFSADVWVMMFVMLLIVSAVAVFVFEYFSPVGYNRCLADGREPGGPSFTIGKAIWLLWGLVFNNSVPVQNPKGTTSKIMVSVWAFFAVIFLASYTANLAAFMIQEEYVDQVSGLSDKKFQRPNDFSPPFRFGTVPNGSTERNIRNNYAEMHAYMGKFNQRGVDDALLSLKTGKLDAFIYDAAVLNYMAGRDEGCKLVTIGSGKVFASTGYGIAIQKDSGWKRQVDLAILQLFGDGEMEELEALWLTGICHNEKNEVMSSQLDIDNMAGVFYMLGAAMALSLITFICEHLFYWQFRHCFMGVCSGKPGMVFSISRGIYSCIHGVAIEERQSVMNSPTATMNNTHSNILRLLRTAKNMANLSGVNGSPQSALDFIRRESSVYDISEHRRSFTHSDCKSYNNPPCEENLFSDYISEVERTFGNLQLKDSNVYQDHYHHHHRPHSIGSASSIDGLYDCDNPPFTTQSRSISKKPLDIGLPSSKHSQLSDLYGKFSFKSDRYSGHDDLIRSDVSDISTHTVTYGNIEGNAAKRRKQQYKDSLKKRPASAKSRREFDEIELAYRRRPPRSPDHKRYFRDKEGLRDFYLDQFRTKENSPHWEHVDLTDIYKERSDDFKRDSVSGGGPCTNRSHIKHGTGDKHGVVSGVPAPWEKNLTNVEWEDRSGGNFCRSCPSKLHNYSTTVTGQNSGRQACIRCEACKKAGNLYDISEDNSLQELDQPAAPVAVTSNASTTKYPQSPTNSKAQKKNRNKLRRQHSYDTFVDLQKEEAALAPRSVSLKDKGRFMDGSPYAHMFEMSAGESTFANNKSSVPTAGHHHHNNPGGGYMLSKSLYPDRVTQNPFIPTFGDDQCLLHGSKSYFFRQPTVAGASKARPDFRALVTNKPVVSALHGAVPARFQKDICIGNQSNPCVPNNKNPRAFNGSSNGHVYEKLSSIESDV
Method: as §1, §2, §3, §4, §5

[4] = target: T3, human NMDA receptor GluN1-GluN2C (Homo sapiens, UniProt Q05586+Q14957); test: FLIPR calcium assay, test item effect on L-glutamate CRC, GluN1-GluN2C-CHO
T3 construct: expressed in transfected cells; host or cells: CHO
T3 sequence (Q14957 20-1233, other chains not shown): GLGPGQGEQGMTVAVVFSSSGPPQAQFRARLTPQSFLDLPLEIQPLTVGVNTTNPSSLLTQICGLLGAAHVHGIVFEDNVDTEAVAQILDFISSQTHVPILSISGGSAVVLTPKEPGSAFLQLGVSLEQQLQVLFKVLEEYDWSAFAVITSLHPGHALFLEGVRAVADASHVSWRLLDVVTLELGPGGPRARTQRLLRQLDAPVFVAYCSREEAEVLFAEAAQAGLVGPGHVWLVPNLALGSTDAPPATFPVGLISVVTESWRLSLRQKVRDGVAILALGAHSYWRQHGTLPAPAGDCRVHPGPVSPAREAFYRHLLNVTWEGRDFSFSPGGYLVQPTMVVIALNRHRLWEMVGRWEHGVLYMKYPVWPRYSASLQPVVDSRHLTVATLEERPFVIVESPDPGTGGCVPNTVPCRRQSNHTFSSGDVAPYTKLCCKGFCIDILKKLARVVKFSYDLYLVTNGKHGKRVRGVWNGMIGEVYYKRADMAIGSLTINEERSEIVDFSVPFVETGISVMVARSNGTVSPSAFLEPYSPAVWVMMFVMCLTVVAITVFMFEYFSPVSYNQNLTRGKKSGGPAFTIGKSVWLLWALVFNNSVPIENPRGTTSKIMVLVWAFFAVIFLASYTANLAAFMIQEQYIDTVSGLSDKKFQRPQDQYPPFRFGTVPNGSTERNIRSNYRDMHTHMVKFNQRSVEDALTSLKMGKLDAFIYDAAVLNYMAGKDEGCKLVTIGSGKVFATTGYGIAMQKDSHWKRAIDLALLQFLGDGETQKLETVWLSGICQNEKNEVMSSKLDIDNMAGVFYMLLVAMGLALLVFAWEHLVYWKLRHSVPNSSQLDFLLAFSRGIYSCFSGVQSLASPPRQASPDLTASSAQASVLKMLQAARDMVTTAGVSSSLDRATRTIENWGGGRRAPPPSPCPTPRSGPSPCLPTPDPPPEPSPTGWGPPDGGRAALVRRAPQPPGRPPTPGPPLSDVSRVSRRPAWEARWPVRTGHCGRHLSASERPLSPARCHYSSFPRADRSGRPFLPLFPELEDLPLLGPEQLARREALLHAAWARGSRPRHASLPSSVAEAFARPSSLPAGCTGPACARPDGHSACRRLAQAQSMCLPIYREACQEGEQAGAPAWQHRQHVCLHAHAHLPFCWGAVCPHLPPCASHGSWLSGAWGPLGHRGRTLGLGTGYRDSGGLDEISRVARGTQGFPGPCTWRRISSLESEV
Method: as §1, §2, §3, §4, §5

[5] = target: T4, human NMDA receptor GluN1-GluN2D (Homo sapiens, UniProt O15399+Q05586); test: FLIPR calcium assay, test item effect on L-glutamate CRC, GluN1-GluN2D-CHO
T4 construct: expressed in transfected cells; host or cells: CHO
T4 sequence (O15399 28-1336, other chains not shown): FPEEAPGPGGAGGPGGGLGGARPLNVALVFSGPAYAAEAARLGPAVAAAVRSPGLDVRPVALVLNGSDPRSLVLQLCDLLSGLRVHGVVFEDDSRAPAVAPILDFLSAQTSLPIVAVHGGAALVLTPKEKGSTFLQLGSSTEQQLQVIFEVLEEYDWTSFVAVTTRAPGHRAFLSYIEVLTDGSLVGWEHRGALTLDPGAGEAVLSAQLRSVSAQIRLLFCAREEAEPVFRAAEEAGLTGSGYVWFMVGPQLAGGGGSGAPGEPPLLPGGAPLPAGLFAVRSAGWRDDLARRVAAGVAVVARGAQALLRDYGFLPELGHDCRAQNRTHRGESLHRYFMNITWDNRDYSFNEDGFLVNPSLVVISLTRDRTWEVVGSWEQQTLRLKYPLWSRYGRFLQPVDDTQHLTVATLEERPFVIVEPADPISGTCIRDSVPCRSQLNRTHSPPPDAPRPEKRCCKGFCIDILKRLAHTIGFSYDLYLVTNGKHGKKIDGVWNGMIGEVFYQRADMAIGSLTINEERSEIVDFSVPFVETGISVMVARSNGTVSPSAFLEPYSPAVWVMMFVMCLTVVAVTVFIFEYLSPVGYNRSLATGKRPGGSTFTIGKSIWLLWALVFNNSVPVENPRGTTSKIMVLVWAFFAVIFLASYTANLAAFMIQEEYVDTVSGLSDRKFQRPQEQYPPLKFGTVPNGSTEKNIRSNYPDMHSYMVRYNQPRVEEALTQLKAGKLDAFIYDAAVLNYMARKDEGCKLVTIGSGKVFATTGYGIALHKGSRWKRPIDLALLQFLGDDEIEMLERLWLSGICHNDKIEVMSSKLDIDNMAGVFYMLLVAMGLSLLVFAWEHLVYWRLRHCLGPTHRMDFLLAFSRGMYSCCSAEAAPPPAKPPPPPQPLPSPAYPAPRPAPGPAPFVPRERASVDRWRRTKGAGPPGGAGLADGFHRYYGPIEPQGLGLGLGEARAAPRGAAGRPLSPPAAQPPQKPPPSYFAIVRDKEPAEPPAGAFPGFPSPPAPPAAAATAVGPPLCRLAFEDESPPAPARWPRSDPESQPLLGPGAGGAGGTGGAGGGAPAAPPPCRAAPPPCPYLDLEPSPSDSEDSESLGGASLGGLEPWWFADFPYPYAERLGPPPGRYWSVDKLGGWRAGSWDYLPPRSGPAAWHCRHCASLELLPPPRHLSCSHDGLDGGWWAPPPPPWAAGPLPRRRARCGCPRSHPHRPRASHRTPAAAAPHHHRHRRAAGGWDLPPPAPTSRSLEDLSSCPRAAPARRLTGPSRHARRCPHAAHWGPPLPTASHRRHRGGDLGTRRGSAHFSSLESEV
Method: as §1, §2, §3, §4, §5

[6] = target: T1, human NMDA receptor GluN1-GluN2A; test: FLIPR calcium assay, quinolinic acid, gentamicin, dextromethadone (Example 5 Part II), GluN1-GluN2A-CHO; parameters: calcium response (mean±SEM): unit not given here; conditions: 10 μM glycine, GluN2A, n=42
Method: (§6) Quinolinic acid or gentamicin CRCs were also produced, in presence of 10 μM glycine.
(§7) Test items were evaluated in FLIPR for their ability to modulate, alone or in combination, calcium entry in presence of […], using four CHO cell lines expressing diheteromeric human NMDA receptor (NMDAR): GluN-/GluN2A-CHO, GluN1-GluN2B-CHO, GluN1-GluN2C-CHO, GluN1-GluN2D-CHO.
(§8) The first aim of the study was to evaluate quinolinic acid or gentamicin CRC effect in the presence of 10 μM glycine.
as §1
(§9) 400× compound plate was stored at −20° C. till FLIPR experimental day.
(§10) A 4× compound plate was generated from 400× compound plate by addition of up to 30 μl/well of compound buffer on FLIPR experimental day.
as §4
(§11) Y=Bottom+(Top−Bottom)/(1+10^((LogEC50−X)*HillSlope))
(§12) Test item CRC data were plotted by Prism 8 GraphPad software, in the different experimental conditions. And, column analysis, performed by Prism 8 GraphPad software, was one way ANOVA followed by Tukey's multiple comparisons test, with a single pooled variance.

[7] = target: T2, human NMDA receptor GluN1-GluN2B; test: FLIPR calcium assay, quinolinic acid, gentamicin, dextromethadone (Example 5 Part II), GluN1-GluN2B-CHO; conditions: 10 μM glycine, GluN2B, n=42
Method: as §6, §7, §8, §1, §9, §10, §4, §11, §12

[8] = target: T3, human NMDA receptor GluN1-GluN2C; test: FLIPR calcium assay, quinolinic acid, gentamicin, dextromethadone (Example 5 Part II), GluN1-GluN2C-CHO; conditions: 10 μM glycine; for calcium response (mean±SEM): GluN2C, n=42
Method: as §6, §7, §8, §1, §9, §10, §4, §11, §12

[9] = target: T4, human NMDA receptor GluN1-GluN2D; test: FLIPR calcium assay, quinolinic acid, gentamicin, dextromethadone (Example 5 Part II), GluN1-GluN2D-CHO; conditions: 10 μM glycine; for calcium response (mean±SEM): GluN2D, n=42
Method: as §6, §7, §8, §1, §9, §10, §4, §11, §12

[10] = L-glutamate alone, 10 μM glycine
[11] = calculated from EC50 and Hill slope

In the case of (+)-MK 801 maleate, the “profile on L-glutamate CRC” value ([1]; 6 test item concentrations) is reported as “insurmountable profile”, the GluN2 subunit preference ([1]; from estimated affinities) is reported as “slight preference for GluN2B containing NMDAR” and the Kb ([1]; read-out: estimated KB with any/all of the NMDAR subtypes) is reported as 50 nM and ≤ 50 nM.

Compound `N[C@@H](CCC(=O)O)C(=O)O` [L-glutamate, L-glutamic acid] has a Bottom [2, 10] of −0.62, a HillSlope [2, 10] of 1.0 and a Span [2, 10] of 107. For the same compound, the Top [2, 10] was 106, the “ECF, F=5” value [2, 11] was 160 nM and the “ECF, F=10” value [2, 11] was 280 nM. For the same compound, the “ECF, F=20” value [2, 11] was 630 nM, the “ECF, F=30” value [2, 11] was 1.07 µM and the “ECF, F=40” value [2, 11] was 1.67 µM. The “ECF, F=90” value [2, 11] was 23 µM, the “ECF, F=95” value [2, 11] was 48 µM and the “ECF, F=99 (maximal effect)” value [2, 11] was 250 µM. The Bottom [3] was 1.7, the “ECF, F=5” value [3] was 140 nM and the “ECF, F=10” value [3] was 240 nM. The “ECF, F=20” value [3] was 450 nM, the “ECF, F=30” value [3] was 680 nM and the “ECF, F=40” value [3] was 950 nM. The “ECF, F=90” value [3] was 7.05 µM, the “ECF, F=95” value [3] was 13 µM and the “ECF, F=99 (maximal effect)” value [3] was 45 µM. It also gave a HillSlope [3] of 1.3, a Span [3] of 109 and a Top [3] of 111. The Bottom [4, 10] was 0.88, the HillSlope [4, 10] was 1.5 and the LogEC50 [4, 10] was −7.1. For the same compound, the Span [4, 10] was 105, the Top [4, 10] was 106 and the “ECF, F=5” value [4, 11] was 120 nM. For the same compound, the “ECF, F=10” value [4, 11] was 200 nM, the “ECF, F=20” value [4, 11] was 350 nM and the “ECF, F=30” value [4, 11] was 500 nM. The “ECF, F=40” value [4, 11] was 660 nM, the “ECF, F=90” value [4, 11] was 3.76 µM and the “ECF, F=95” value [4, 11] was 6.19 µM. For the same compound, the “ECF, F=99 (maximal effect)” value [4, 11] was 19 µM, the Bottom [5, 10] was 5.3 and the HillSlope [5, 10] was 1.6. For the same compound, the LogEC50 [5, 10] was −7.5, the Span [5, 10] was 99 and the Top [5, 10] was 105. For the same compound, the “ECF, F=5” value [5, 11] was 54 nM, the “ECF, F=10” value [5, 11] was 86 nM and the “ECF, F=20” value [5, 11] was 140 nM. The “ECF, F=30” value [5, 11] was 200 nM, the “ECF, F=40” value [5, 11] was 260 nM and the “ECF, F=90” value [5, 11] was 1.34 µM. For the same compound, the “ECF, F=95” value [5, 11] was 2.14 µM, the “ECF, F=99 (maximal effect)” value [5, 11] was 6 µM and 6.01 µM and the “calcium response (mean±SEM)” value ([6]; 0.04 μM L-Glu) was 1.7 ± 0.3. The “calcium response (mean±SEM)” value ([6]; 0.2 μM L-Glu) was 22 ± 0.7, the “calcium response (mean±SEM)” value ([6]; Table 41: 0.04 μM L-Glu) was 1.7 ± 0.3 and the “calcium response (mean±SEM)” value ([6]; Table 43: 0.2 μM L-Glu) was 22 ± 0.7. The “calcium response (mean±SEM)” value ([7]; 0.04 μM L-Glu) was −0.9 ± 0.6, the “calcium response (mean±SEM)” value ([7]; 0.2 μM L-Glu) was 18 ± 1.2 and the “calcium response (mean±SEM)” value ([7]; Table 41: 0.04 μM L-Glu) was 0.9 ± 0.6. The “calcium response (mean±SEM)” value ([7]; Table 43: 0.2 μM L-Glu) was 18 ± 1.2, the “calcium response (mean±SEM)” value ([8]; 0.04 μM L-Glu) was −1.2 ± 0.6 and the “calcium response (mean±SEM)” value ([8]; 0.2 μM L-Glu) was 30 ± 1.7. For the same compound, the “intracellular calcium increase elicited by 0.2 μM L-glutamate” value ([8]; L-glutamate alone) was 30±1.7%, the “calcium response (mean±SEM)” value ([8]; Table 41: 0.04 μM L-Glu) was −1.2 ± 0.6 and the “calcium response (mean±SEM)” value ([8]; Table 43: 0.2 μM L-Glu) was 30 ± 1.7. The “calcium response (mean±SEM)” value ([9]; 0.04 μM L-Glu) was 18 ± 1.2, the “calcium response (mean±SEM)” value ([9]; 0.2 μM L-Glu) was 92 ± 2.0 and the “efficacy of 0.2 μM L-glutamate alone” value [9] was 92±2.0%. For the same compound, the “calcium response (mean±SEM)” value ([9]; Table 41: 0.04 μM L-Glu) was 18 ± 1.2 and the “calcium response (mean±SEM)” value ([9]; Table 43: 0.2 μM L-Glu) was 92 ± 2.0.
